Measurements: ChEMBL document CHEMBL1159283, “Further brominated bis- and tris-indole alkaloids from the deep-water New Caledonian marine sponge Orina Sp” (J Nat Prod, 1995)
Activity calls are given as the source filed them. The rule behind the calls is not given here.

Experiments:
[1] = molecular target: T1, B2 bradykinin receptor (Homo sapiens) (UniProt P30411); assay: Displacement of [3H]bradykinin from bradykinin B2 receptor expressed in baculovirus-infected SF21 cells at 5 ug/mL
T1 sequence (whole entry): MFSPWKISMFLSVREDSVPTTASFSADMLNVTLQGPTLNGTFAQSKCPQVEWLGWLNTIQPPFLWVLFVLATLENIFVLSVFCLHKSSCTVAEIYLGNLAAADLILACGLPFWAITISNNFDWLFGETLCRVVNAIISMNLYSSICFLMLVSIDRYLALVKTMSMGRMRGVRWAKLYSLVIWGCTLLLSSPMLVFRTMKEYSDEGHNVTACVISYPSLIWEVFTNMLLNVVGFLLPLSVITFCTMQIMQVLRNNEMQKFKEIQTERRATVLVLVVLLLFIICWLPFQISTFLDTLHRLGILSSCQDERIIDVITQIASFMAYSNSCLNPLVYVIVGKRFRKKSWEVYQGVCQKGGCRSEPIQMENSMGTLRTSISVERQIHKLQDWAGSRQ

Rattus norvegicus = species: Rattus norvegicus; assay: Displacement of [3H]NPY from neuropeptide Y receptor in rat cerebral cortices membrane at 5 ug/mL; format: cell membranes
[2] = Binding affinity to quisqualate site of glutamate receptor at 5 ug/mL by AMPA binding assay
BOWES = assay: Binding affinity to galanin receptor in human BOWES cells at 5 ug/mL; format: cell-based
[3] = Binding affinity to regulatory site of NMDA receptor at 5 ug/mL by glycine binding assay
[4] = molecular target: Somatostatin receptor (Rattus norvegicus) (UniProt Q7TT86); assay: Displacement of [125I]somatostatin from somatostatin receptor in rat cerebral cortices membrane at 5 ug/mL; format: cell membranes
Chain of Somatostatin receptor (Rattus norvegicus) (Q7TT86 as listed by the source): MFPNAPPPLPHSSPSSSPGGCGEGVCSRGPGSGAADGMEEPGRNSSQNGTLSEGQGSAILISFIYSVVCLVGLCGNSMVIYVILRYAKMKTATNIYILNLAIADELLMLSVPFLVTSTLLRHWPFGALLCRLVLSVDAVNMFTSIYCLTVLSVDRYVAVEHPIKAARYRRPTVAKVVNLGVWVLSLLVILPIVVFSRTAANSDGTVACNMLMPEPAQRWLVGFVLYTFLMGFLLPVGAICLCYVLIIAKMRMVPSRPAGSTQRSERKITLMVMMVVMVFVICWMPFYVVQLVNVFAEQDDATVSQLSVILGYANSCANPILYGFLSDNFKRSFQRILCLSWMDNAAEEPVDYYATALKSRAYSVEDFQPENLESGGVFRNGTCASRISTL

[5] = Antagonist activity at serotonin receptor in guinea pig ileum assessed as inhibition of serotonin-induced contraction; format: functional, tissue-based; settings: Cavia porcellus
[6] = Binding affinity to VIP receptor at 5 ug/mL
[7] = Binding affinity to neurotensin receptor at 5 ug/mL
[8] = molecular target: T2, Neuromedin-K receptor (Homo sapiens) (UniProt P29371); assay: Binding affinity to NK3 tachykinin receptor at 5 ug/mL by senktide binding assay
T2 sequence (whole entry): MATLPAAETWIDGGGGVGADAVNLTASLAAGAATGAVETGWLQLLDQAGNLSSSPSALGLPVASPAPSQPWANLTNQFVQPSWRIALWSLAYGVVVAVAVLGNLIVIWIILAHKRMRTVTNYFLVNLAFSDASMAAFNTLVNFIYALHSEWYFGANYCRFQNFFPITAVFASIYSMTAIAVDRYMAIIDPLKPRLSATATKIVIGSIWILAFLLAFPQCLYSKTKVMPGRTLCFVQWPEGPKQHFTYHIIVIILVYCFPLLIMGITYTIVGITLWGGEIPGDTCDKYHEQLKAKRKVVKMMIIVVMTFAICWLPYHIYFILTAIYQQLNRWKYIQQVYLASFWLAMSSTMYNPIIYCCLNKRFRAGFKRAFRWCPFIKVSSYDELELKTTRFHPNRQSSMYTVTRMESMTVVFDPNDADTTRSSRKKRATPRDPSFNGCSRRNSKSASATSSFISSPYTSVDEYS

[9] = molecular target: Calcitonin gene-related peptide type 1 receptor (Homo sapiens) (UniProt Q16602); assay: Binding affinity to CGRP receptor at 5 ug/mL
Chain of Calcitonin gene-related peptide type 1 receptor (Homo sapiens) (Q16602 whole entry): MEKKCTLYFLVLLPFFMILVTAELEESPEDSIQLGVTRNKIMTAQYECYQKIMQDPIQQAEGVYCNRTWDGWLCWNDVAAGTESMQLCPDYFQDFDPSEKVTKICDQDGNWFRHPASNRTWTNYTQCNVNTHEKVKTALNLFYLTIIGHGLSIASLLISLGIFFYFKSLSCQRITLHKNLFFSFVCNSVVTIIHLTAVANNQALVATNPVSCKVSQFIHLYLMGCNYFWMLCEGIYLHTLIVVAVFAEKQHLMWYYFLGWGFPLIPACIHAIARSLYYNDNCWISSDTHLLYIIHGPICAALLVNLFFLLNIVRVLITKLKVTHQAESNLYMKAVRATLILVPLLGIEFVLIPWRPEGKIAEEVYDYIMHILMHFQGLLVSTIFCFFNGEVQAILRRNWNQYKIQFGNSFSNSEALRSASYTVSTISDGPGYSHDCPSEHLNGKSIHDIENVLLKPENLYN

inhibition [1] [%] | inhibition (Rattus norvegicus) [%] | Activity [2] | Activity [3] | Activity [4] | IC50 [5] [µM] | Activity [6] | Activity [7] | Activity [8] | Activity [9] | SMILES | Activity (BOWES)
93 | 62 | – | – | – | – | – | – | – | – | NCCc1c(C(CN)c2c[nH]c3cc(Br)ccc23)[nH]c2cc(C(CN)c3c[nH]c4cc(Br)ccc34)c(O)cc12 (stereo in doubt; form 2) | –
89 | 67 | inactive | inactive | 91% | 10 | inactive | inactive | inactive | inactive | NCCc1c(C(CN)c2c[nH]c3cc(Br)ccc23)[nH]c2cc(Br)ccc12 (racemic) | inactive
63 | 63 | inactive | inactive | 87% | 50 | inactive | inactive | inactive | inactive | NCCc1c(C(CN)c2c[nH]c3cc(Br)ccc23)[nH]c2ccc(O)cc12 (racemic) | inactive
– | – | – | – | – | 2 | – | – | – | – | NCCc1c(C(CN)c2c[nH]c3cc(Br)ccc23)[nH]c2ccc(O)c(C(CN)c3c[nH]c4cc(Br)ccc34)c12 (racemic) | –
– | – | inactive | inactive | Active | – | inactive | inactive | inactive | inactive | NCCc1c(C(CN)c2c[nH]c3cc(Br)ccc23)[nH]c2cc(C(CN)c3c[nH]c4cc(Br)ccc34)c(O)cc12 (racemic) | inactive
100 | 90 | – | – | – | – | – | – | – | – | NCCc1c(C(CN)c2c[nH]c3cc(Br)ccc23)[nH]c2cc(C(CN)c3c[nH]c4cc(Br)ccc34)c(O)cc12 (stereo in doubt; form 1) | –

SMILES | inhibition [1] [%] | inhibition (Rattus norvegicus) [%] | Activity [2] | Activity [3] | Activity [4] | IC50 [5] [µM] | Activity [6] | Activity [7] | Activity [8] | Activity [9] | Activity (BOWES)
NCCc1c[nH]c2ccc(O)c(C(CN)c3c[nH]c4cc(Br)ccc34)c12 (racemic) | – | – | – | – | – | 100 | – | – | – | – | –
